Assay [1] has as its system Aβ40 in conditioned medium of cells stably expressing Amyloid Precursor Protein (APP). Kind of assay: In vitro BACE cell-based assay (Aβ40 in conditioned medium, sandwich ELISA). The following applies: Homo sapiens, read-out: HEK cell assay. The gist of the method:
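Step two: 10-point compound titration added, starting 100 μM or 10 μM, 0.1% DMSO. Step three: medium Aβ40 measured by ELISA, capture 3 h and detection 2 h at 4° C, TRF read.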

The target of assay [2] is Beta Secretase enzyme (BACE) (Homo sapiens, UniProt P56817). Kind of assay: In vitro enzymatic BACE FRET (fluorescence resonance energy transfer) assay. Format: biochemical. The following applies: average IC50, enzyme assay; read-out: BACE 1 FRET assay. Summed up: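 Run in 0.05 M acetate pH 4.2 with 10% DMSO final and 100 uM genapol; started by adding 50 nM FRET peptide substrate (fluorophore and quencher flanking the cleavage site), incubated one hour, then stopped with Tris to neutral pH before reading fluorescence.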
Beta Secretase enzyme (BACE), sequence (P56817 46-501, species assumed): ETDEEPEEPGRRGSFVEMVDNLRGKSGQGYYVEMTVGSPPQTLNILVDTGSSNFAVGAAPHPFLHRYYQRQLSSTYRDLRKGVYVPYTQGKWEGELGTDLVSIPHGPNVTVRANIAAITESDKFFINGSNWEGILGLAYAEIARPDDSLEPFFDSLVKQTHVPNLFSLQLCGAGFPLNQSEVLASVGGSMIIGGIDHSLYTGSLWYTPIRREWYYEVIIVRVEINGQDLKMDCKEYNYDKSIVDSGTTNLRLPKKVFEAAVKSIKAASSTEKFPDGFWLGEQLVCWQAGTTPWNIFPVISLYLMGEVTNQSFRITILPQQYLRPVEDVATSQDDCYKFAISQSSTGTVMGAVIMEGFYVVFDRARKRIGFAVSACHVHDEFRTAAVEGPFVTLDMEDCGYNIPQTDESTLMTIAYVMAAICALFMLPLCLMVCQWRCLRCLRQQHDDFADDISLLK

Setting [3] is: HEK293, average IC50, HEK cells.

Like-named read-outs stand apart in the source and are kept apart here.

As to `COC(C)(C)C#Cc1cnc2c(c1)[C@@]1(COC(N)=N1)c1cc(-c3cncc(F)c3)c(F)cc1O2` [Example 642, (5R)-8-fluoro-7-(5-fluoro-3-pyridinyl)-3-(3-methoxy-3-methyl-1-butyn-1-yl)spiro[chromeno[2,3-b]pyridine-5,4′-[1,3]oxazol]-2′-amine], the IC50 in assay [1] (setting [3]) was determined as 435 nM; in assay [2] it was 109 nM.
On the same counts, the results for `Cc1ccn(-c2cc(F)c3c(c2)[C@]2(COC(N)=N2)c2cc(-c4cccnc4)ccc2O3)n1` [Example 633, (4S)-4′-fluoro-2′-(3-methyl-1H-pyrazol-1-yl)-7′-(3-pyridinyl)spiro[1,3-oxazole-4,9′-xanthen]-2-amine] are 34 nM and 3.9 nM.
On to `N#Cc1cccc(-c2ccc3c(c2)[C@@]2(COC(N)=N2)c2cc(C4=CCCOC4)nc(F)c2O3)c1` [Example 742, 3-((5S)-2′-amino-3-(5,6-dihydro-2H-pyran-3-yl)-1-fluorospiro[chromeno[2,3-c]pyridine-5,4′-[1,3]oxazol]-7-yl)benzonitrile], for which the IC50 in assay [1] (HEK293, average IC50) came out at 8 nM; in assay [2] it was 0.4 nM.
Take `CC1(C#Cc2cc3c(cc2OC(F)(F)F)Oc2ccc(-c4cccnc4F)cc2[C@@]32COC(N)=N2)COC1` [Example 986, (4S)-7′-(2-fluoro-3-pyridinyl)-2′-((3-methyl-3-oxetanyl)ethynyl)-3′-(trifluoromethoxy)spiro[1,3-oxazole-4,9′-xanthen]-2-amine]: the IC50 in assay [1] (HEK293, average IC50) came to 2820 nM; in assay [2], 193 nM.
On the same counts, the results for `COc1nc(Cl)cc2c1Oc1ccc(Br)cc1[C@@]21COC(N)=N1` [Example 710, (S)-7-bromo-3-chloro-1-methoxy-5′H-spiro[chromeno[2,3-c]pyridine-5,4′-oxazol]-2′-amine] are not below 10000 nM and 6890 nM.
On the same counts, the results for `COc1cc2c(c(F)c1F)Oc1ccc(-c3cccnc3F)cc1[C@]21COC(N)=N1` [Example 1004, (4R)-3′,4′-difluoro-7′-(2-fluoro-3-pyridinyl)-2′-methoxyspiro[1,3-oxazole-4,9′-xanthen]-2-amine] are not below 10000 nM and 5560 nM.
On to `Cc1ccc(-c2cnc3c(c2)[C@]2(COC(N)=N2)c2cc(OCc4cccnc4)ccc2O3)cn1` [Example 977, (5S)-3-(6-methyl-3-pyridinyl)-7-(3-pyridinylmethoxy)spiro[chromeno[2,3-b]pyridine-5,4′-[1,3]oxazol]-2′-amine], for which the IC50 in assay [1] (HEK293, average IC50) stood at 430 nM; in assay [2] it was 51.9 nM.
In the case of `NC1=N[C@@]2(CO1)c1cc(-c3cccnc3F)ccc1Oc1c2cc(Cl)nc1F` [Example 488, (5S)-3-chloro-1-fluoro-7-(2-fluoro-3-pyridinyl)spiro[chromeno[2,3-c]pyridine-5,4′-[1,3]oxazol]-2′-amine], the values for the IC50 in assay [1] (setting [3]) and in assay [2] were 358 nM and 6.6 nM, respectively.
On to `N#Cc1cccc(-c2ccc3c(c2)[C@@]2(COC(N)=N2)c2cc(C4=CCOCC4)ncc2O3)c1` [Example 143, 3-((5S)-2′-amino-3-(3,6-dihydro-2H-pyran-4-yl)spiro[chromeno[2,3-c]pyridine-5,4′-[1,3]oxazol]-7-yl)benzonitrile], for which the IC50 in assay [1] (HEK293, average IC50) is 9.4 nM; in assay [2], 1.1 nM.
Turning to `COc1cc(F)c2c(c1)[C@]1(COC(N)=N1)c1cc(-c3cncc(CC#N)c3)ccc1O2` [Example 1074, (5-((4S)-2-amino-5′-fluoro-7′-methoxyspiro[1,3-oxazole-4,9′-xanthen]-2′-yl)-3-pyridinyl)acetonitrile], the IC50 in assay [1] (HEK293, average IC50) amounted to 324 nM; in assay [2] it was 131 nM.
For `COCC#Cc1cncc(-c2ccc3c(c2)C2(COC(N)=N2)c2cc(OC)cc(F)c2O3)c1` (stereo not shown) [Example 843, 4′-fluoro-2′-methoxy-7′-(5-(3-methoxy-1-propyn-1-yl)-3-pyridinyl)spiro[1,3-oxazole-4,9′-xanthen]-2-amine] the same measures were 57 nM and 8.8 nM.
Consider `NC1=N[C@@]2(CO1)c1cc(-c3cncc(F)c3)c(F)cc1Oc1ncc(C3=CCOCC3)cc12` [Example 647, (5S)-3-(3,6-dihydro-2H-pyran-4-yl)-8-fluoro-7-(5-fluoro-3-pyridinyl)spiro[chromeno[2,3-b]pyridine-5,4-[1,3]oxazol]-2′-amine], for which the IC50 came out at 16 nM in assay [1] (setting [3]) and 2.1 nM in assay [2].
As for `NC1=N[C@@]2(CO1)c1cc(-c3cccnc3F)ccc1Oc1c2cc(-c2ccccc2)nc1F` [Example 806, (S)-1-fluoro-7-(2-fluoropyridin-3-yl)-3-phenyl-5′H-spiro[chromeno[2,3-c]pyridine-5,4′-oxazol]-2′-amine], the IC50 in assay [1] (HEK293, average IC50, HEK cell assay) was determined as 5 nM; in assay [2], 1.5 nM.
Take `CC1(C#Cc2cc3c(cn2)Oc2ccc(-c4c(F)ccnc4F)cc2[C@@]32COC(N)=N2)COC1` [Example 957, (5S)-7-(2,4-difluoro-3-pyridinyl)-3-((3-methyl-3-oxetanyl)ethynyl)spiro[chromeno[2,3-c]pyridine-5,4′-[1,3]oxazol]-2′-amine]: the IC50 in assay [1] (setting [3]) worked out at 33 nM; in assay [2] it was 1.2 nM.
On to `NC1=N[C@@]2(CO1)c1cc(-c3cncnc3)ccc1Oc1c(F)cc(-n3cccn3)cc12` [Example 692, (4S)-4′-fluoro-2′-(1H-pyrazol-1-yl)-7′-(5-pyrimidinyl)spiro[1,3-oxazole-4,9′-xanthen]-2-amine], for which the IC50 amounted to 74 nM in assay [1] (setting [3]) and 3.7 nM in assay [2].
For `NC1=N[C@@]2(CS1)c1cc(-c3cccnc3F)ccc1Oc1cnc([C@@H]3CCCOC3)cc12` [Example 931, (5S)-7-(2-fluoro-3-pyridinyl)-3-((3S)-tetrahydro-2H-pyran-3-yl)spiro[chromeno[2,3-c]pyridine-5,4′-[1,3]thiazol]-2′-amine] the same measures were 347 nM and 21.6 nM.
As to `CC1(C#Cc2cncc(-c3ccc4c(c3)[C@@]3(COC(N)=N3)c3cc(Cl)ncc3O4)c2)COC1` [Example 810, (5S)-3-chloro-7-(5-((3-methyl-3-oxetanyl)ethynyl)-3-pyridinyl)spiro[chromeno[2,3-c]pyridine-5,4′-[1,3]oxazol]-2′-amine], the IC50 in assay [1] (HEK293, average IC50) is not below 10000 nM; in assay [2], 604 nM.
For `CC(C)(C#N)COc1cc(F)c2c(c1)[C@]1(COC(N)=N1)c1cc(-c3cncc(F)c3)ccc1O2` [Example 272, 3-(((4S)-2-amino-4′-fluoro-7′-(5-fluoro-3-pyridinyl)spiro[1,3-oxazole-4,9′-xanthen]-2′-yl)oxy)-2,2-dimethylpropanenitrile] the same measures were 5.9 nM and 0.5 nM.
`C=CCN(C)c1cc(F)c2c(c1)[C@]1(COC(N)=N1)c1cc(-c3cccnc3F)ccc1O2` [Example 853, (4S)-4′-fluoro-7′-(2-fluoro-3-pyridinyl)-N~2~′-methyl-N~2~′-2-propen-1-ylspiro[1,3-oxazole-4,9′-xanthene]-2,2′-diamine]: the figures for the IC50 in assay [1] (setting [3]) and in assay [2] were 85 nM and 4 nM, respectively.
For `COc1cc(-c2cc3c(cn2)Oc2ccc(-c4cccnc4F)cc2[C@@]32COC(N)=N2)ccc1F` [Example 537, (5S)-3-(4-fluoro-3-methoxyphenyl)-7-(2-fluoro-3-pyridinyl)spiro[chromeno[2,3-c]pyridine-5,4′-[1,3]oxazol]-2′-amine] the same measures were 303 nM and 7.6 nM.
As for `NC1=N[C@]2(CO1)c1cc(C3=CCOCC3)cnc1Oc1ccc(-c3cccnc3F)c(F)c12` [Example 346, (5R)-3-(3,6-dihydro-2H-pyran-4-yl)-6-fluoro-7-(2-fluoro-3-pyridinyl)spiro[chromeno[2,3-b]pyridine-5,4′-[1,3]oxazol]-2′-amine], the IC50 in assay [1] (HEK293, average IC50) amounted to 6.7 nM; in assay [2], 0.8 nM.
On the same counts, the results for `CC1(C)CC(c2cnc3c(c2)[C@]2(COC(N)=N2)c2c(ccc(-c4cccnc4F)c2F)O3)=CCO1` [Example 349, (5R)-3-(2,2-dimethyl-3,6-dihydro-2H-pyran-4-yl)-6-fluoro-7-(2-fluoro-3-pyridinyl)spiro[chromeno[2,3-b]pyridine-5,4′-[1,3]oxazol]-2′-amine] are 8 nM and 0.7 nM.
For `NC1=N[C@@]2(CO1)c1cc(-c3cnccc3F)ccc1Oc1c(F)cc(C3=CCOCC3)cc12` [Example 1044, (4S)-2′-(3,6-dihydro-2H-pyran-4-yl)-4′-fluoro-7′-(4-fluoro-3-pyridinyl)spiro[1,3-oxazole-4,9′-xanthen]-2-amine] the same measures were 18 nM and 0.5 nM.
With `NC1=N[C@@]2(CS1)c1cc(-c3cncnc3)c(F)cc1Oc1c(F)cc(C3=CCCOC3)cc12` [Example 873, (4S)-7′-(5,6-dihydro-2H-pyran-3-yl)-3′,5′-difluoro-2′-(5-pyrimidinyl)spiro[1,3-thiazole-4,9′-xanthen]-2-amine], the results for the IC50 in assay [1] (setting [3]) and in assay [2] were 7 nM and 0.3 nM, respectively.
Turning to `Cc1noc(C)c1-c1cccc(-c2ccc3c(c2)[C@@]2(COC(N)=N2)c2cc(C4=CCOCC4)ncc2O3)c1` [Example 245, (5S)-3-(3,6-dihydro-2H-pyran-4-yl)-7-(3-(3,5-dimethyl-4-isoxazolyl)phenyl)spiro[chromeno[2,3-c]pyridine-5,4′-[1,3]oxazol]-2′-amine], the IC50 came out at 529 nM in assay [1] (HEK293, average IC50) and 23 nM in assay [2].
As to `NC1=N[C@@]2(CO1)c1cc(-c3cccnc3)ccc1Oc1cnc(N3CC[C@H](F)C3)cc12` [Example 412, (5S)-3-((3S)-3-fluoro-1-pyrrolidinyl)-7-(3-pyridinyl)spiro[chromeno[2,3-c]pyridine-5,4′-[1,3]oxazol]-2′-amine], the IC50 in assay [1] (setting [3]) turned out to be 20.8 nM; in assay [2] it was 7.6 nM.

The values above are taken from patent publication US8883782B2, “Spiro-tetracyclic ring compounds as beta-secretase modulators and methods of use” (Amgen Inc., priority 2010, dated 2014).
